Results reported in patent US20070093520A1, “Method of treatment of diarrhea-predominant irritable bowel syndrome in a subject” (priority 2005, published 2007).

Tested on: diarrhea-predominant IBS subjects
Assay: 3007 Study: laboratory marked abnormalities
Type: in vivo, human
Conditions: Study 3007
Procedure: Subjects were encouraged to fast at least six hours prior to laboratory samples being drawn. Laboratory safety tests were performed at Day 1 (Visit 5 of the core protocol), Months 1, 6, and 12 (end of study or at the early termination visit). Blood and urine were analyzed for:
• Prothrombin time (PT) (only before colonoscopy, as per clinical practice) • Hemoglobin • Hematocrit • Red blood cell count (RBC) • White blood cell count (WBC) • Differential blood count • Platelet count Blood Chemistry: • Glucose • Creatinine • Blood urea nitrogen (BUN) • Creatine kinase (CK) • Alkaline phosphatase (AP) • Total bilirubin • Alanine aminotransferase (ALT/SGPT) • Aspartate aminotransferase (AST/SGOT) • Gamma-glutamyltransferase (GGT) • Triglycerides • Cholesterol • Total protein • Uric acid • Sodium • Potassium • Calcium • Quantitative beta human chorionic gonadotrophin (β-HCG) (at every visit) • Thyroid stimulating hormone (visit 1 only) Urine: • Urobilinogen • Blood • Bilirubin • Ketones • Glucose • Protein • Nitrite • Leukocytes • pH • Dipstick pregnancy test (Day 1 only, if necessary) Stool: • Parasite, ova and stool culture (visit 1 only, if necessary) • Occult blood (analysis at each visit)
Laboratory data are presented in conventional units. Only one central laboratory was used for each laboratory parameter, thus no laboratory normalization was carried out.
For Study 3007, “baseline” was defined as Visit 1 of core Study 3006 for subjects randomized to the cilansetron treatment group in Study 3006 and as the last post-Baseline visit of Study 3006 (normally Visit 5) for subjects randomized to the placebo group in Study 3006.
Summary statistics are presented for all hematology and chemistry parameters at each analysis timepoint and at Endpoint, as well as for change from Baseline results at each post-Baseline analysis timepoint and at Endpoint. For laboratory assessments that were gender specific, summaries were presented separately for males and females. A listing of laboratory assessments for hematology, chemistry, and urinalysis parameters is presented. The following categories were used for the urinalysis parameter summaries: • pH: ≦5.0, >5.0 to ≦6.0, >6.0 to ≦7.0, and >7.0 • glucose, total protein, ketones, total bilirubin, nitrite, RBC (erythrocytes), and urobilinogen: negative and other (consisting of ‘trace’, ‘positive’, ‘+’, ‘++’, ‘+++’, or ‘++++’) • WBC (leukocytes): negative, positive
The overall incidence of post-Baseline marked abnormalities for hematology and chemistry parameters is also presented. Where applicable, the incidence of post-Baseline marked abnormalities is presented separately by whether the value was abnormally high or low. Any post-Baseline markedly abnormal laboratory measurement collected after the first dose of cilansetron and within 30 days of the last dose of cilansetron was included. However, assessments which were done more than 30 days after last subject visit and after database lock were not included in the analysis. Subjects were counted at most once for the post-Baseline marked abnormality for each laboratory parameter.

For `Cc1nccn1C[C@H]1CCc2c(c3cccc4c3n2CCC4)C1=O` [cilansetron, (R)-(−)-4,5,6,8,9,10-hexahydro-10-[(2-methyl-1H-imidazol-1-yl)methyl]-11H-pyrido-[3,2,1-jk]-carbazol-11-one], the “post-Baseline markedly high CK” value was 3%, the “post-Baseline markedly high eosinophils” value was 1% and the “post-Baseline markedly high triglycerides” value was 3%. The “post-Baseline markedly high uric acid” value was 1%, the “post-Baseline markedly high GGT” value (females) was 5% and the “post-Baseline markedly high GGT” value (males) was 7%. For the same compound, the “post-Baseline markedly high GGT” value (overall) was 6%.
